Measurements published in PubChem BioAssay AID328 (DTP/NCI, 2004).
Values joined by “and” are separate entries in the source; they are usually repeats but may differ in a detail not shown here. Equal entries are not always repeated. Toxic doses and inconclusive results are not listed.

System: BDF1 mice, P388 leukemia ip, median survival T/C
Assay: NCI In Vivo Anticancer Drug Screen. Data for tumor model P388 Leukemia (intraperitoneal) in B6D2F1 (BDF1) mice
Details: endpoint: median survival time, higher = longer survival
Procedure, shortened: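 Reported as T/C, where T is the survival measurement in dosed animals and C the same measurement in vehicle controls.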

[1] = dose: 50.0 mg/kg/injection, schedule: Q01DX009 (ip), vehicle: saline with Tween-80
[2] = dose: 100.0 mg/kg/injection, schedule: Q01DX009 (ip), vehicle: saline with Tween-80
[3] = dose: 200.0 mg/kg/injection, schedule: Q01DX009 (ip), vehicle: saline with Tween-80
[4] = dose: 100.0 mg/kg/injection, schedule: Q04DX003 (ip), vehicle: saline with Tween-80
[5] = dose: 200.0 mg/kg/injection, schedule: Q04DX003 (ip), vehicle: saline with Tween-80
[6] = dose: 400.0 mg/kg/injection, schedule: Q04DX003 (ip), vehicle: saline with Tween-80

Q: With `Cc1csc(NC(O)C(Cl)(Cl)Cl)n1` (configuration not stated) as the compound, how does the T/C [1] read?
A: 98 % of control

Q: And the T/C [2]?
A: 106 % of control

Q: What about the T/C [3] of the same compound?
A: 101 % of control

Q: Which results are given for `CCc1ccc(OS(=O)(=O)c2ccccc2[N+](=O)[O-])cc1`?
A: T/C (dose: 100.0 mg/kg/injection, schedule: Q04DX003 (ip), vehicle: saline sonified): 100 % of control; T/C (dose: 200.0 mg/kg/injection, schedule: Q04DX003 (ip), vehicle: saline sonified): 100 % of control; T/C (dose: 400.0 mg/kg/injection, schedule: Q04DX003 (ip), vehicle: saline sonified): 100 % of control

Q: Which T/C [1] does the source give for `OC(CC1CCCCN1)c1cc(C(F)(F)F)nc2c(C(F)(F)F)cccc12` (configuration not stated) here?
A: 111 % of control

Q: With `O=C1C=CC(=C(c2ccccc2)c2ccccc2)C=C1` as the compound, how does the T/C (dose: 12.5 mg/kg/injection, schedule: Q04DX003 (ip), vehicle: Klucel (hydroxypropylcellulose) (HPC)) read?
A: 95 % of control

Q: What about the T/C (dose: 25.0 mg/kg/injection, schedule: Q04DX003 (ip), vehicle: Klucel (hydroxypropylcellulose) (HPC)) of the same compound?
A: 100 % of control

Q: What about the T/C (dose: 50.0 mg/kg/injection, schedule: Q04DX003 (ip), vehicle: Klucel (hydroxypropylcellulose) (HPC)) of the same compound?
A: 91 % of control

Q: For `COc1ccc(C(O)c2ccccn2)cc1` (configuration not stated), which T/C [4] is on record?
A: 100 % of control

Q: What about the T/C [5] of the same compound?
A: 110 % of control

Q: And the T/C [6]?
A: 105 % of control

Q: `OCc1cncc(F)c1` was tested. Which T/C (dose: 50.0 mg/kg/injection, schedule: Q01DX009 (ip), vehicle: saline) did it give?
A: 103 % of control

Q: And the T/C (dose: 100.0 mg/kg/injection, schedule: Q01DX009 (ip), vehicle: saline)?
A: 103 % of control

Q: What about the T/C (dose: 200.0 mg/kg/injection, schedule: Q01DX009 (ip), vehicle: saline) of the same compound?
A: 103 % of control

Q: For `O=S(=O)(Nc1cc(Cl)c(NS(=O)(=O)c2ccccc2)cc1Cl)c1ccccc1`, which T/C (dose: 100.0 mg/kg/injection, schedule: Q01DX001 (ip), vehicle: saline with Tween-80) is on record?
A: 95 % of control

Q: And the T/C (dose: 200.0 mg/kg/injection, schedule: Q01DX001 (ip), vehicle: saline with Tween-80)?
A: 90 % of control

Q: What about the T/C (dose: 400.0 mg/kg/injection, schedule: Q01DX001 (ip), vehicle: saline with Tween-80) of the same compound?
A: 86 % of control

Q: How did the T/C (dose: 50.0 mg/kg/injection, schedule: Q04DX003 (ip), vehicle: saline with Tween-80) turn out when `O=C(NCCCCOc1ccc([N+](=O)[O-])cc1Cl)c1ccc(S(=O)(=O)F)cc1` was run?
A: 103 % of control

Q: And the T/C [4]?
A: 96 % of control and 112 % of control

Q: And the T/C [5]?
A: 106 % of control

Q: What about the T/C [6] of the same compound?
A: 90 % of control and 103 % of control

Q: How did the T/C [2] turn out when `Cc1nc(N)c(=O)[nH]c1C` was run?
A: 95 % of control

Q: And the T/C [4]?
A: 108 % of control

Q: And the T/C [3]?
A: 90 % of control

Q: And the T/C [5]?
A: 95 % of control

Q: What about the T/C (dose: 400.0 mg/kg/injection, schedule: Q01DX009 (ip), vehicle: saline with Tween-80) of the same compound?
A: 90 % of control

Q: And the T/C [6]?
A: 91 % of control

Q: For `CCCCCCC(=O)O[C@H]1CC[C@H]2[C@@H]3CCC4=CC(=O)CC[C@]4(C)[C@H]3CC[C@]12C`, which T/C (dose: 25.0 mg/kg/injection, schedule: Q01DX009 (ip), vehicle: other) is on record?
A: 120 % of control

Q: And the T/C (dose: 25.0 mg/kg/injection, schedule: Q04DX003 (ip), vehicle: other)?
A: 100 % of control

Q: And the T/C (dose: 50.0 mg/kg/injection, schedule: Q01DX009 (ip), vehicle: other)?
A: 100 % of control

Q: What about the T/C (dose: 50.0 mg/kg/injection, schedule: Q04DX003 (ip), vehicle: other) of the same compound?
A: 100 % of control

Q: What about the T/C (dose: 66.0 mg/kg/injection, schedule: Q01DX009 (ip), vehicle: other) of the same compound?
A: 100 % of control

Q: What about the T/C (dose: 100.0 mg/kg/injection, schedule: Q01DX009 (ip), vehicle: other) of the same compound?
A: 100 % of control

Q: And the T/C (dose: 100.0 mg/kg/injection, schedule: Q04DX003 (ip), vehicle: other)?
A: 100 % of control

Q: What about the T/C (dose: 150.0 mg/kg/injection, schedule: Q01DX009 (ip), vehicle: other) of the same compound?
A: 90 % of control

Q: Which T/C (dose: 1.56 mg/kg/injection, schedule: Q04DX003 (ip), vehicle: saline with Tween-80) does the source give for `COc1cccc(C)c1NC1=NCCO1` here?
A: 117 % of control

Q: Which T/C (dose: 0.78 mg/kg/injection, schedule: Q01DX009 (ip), vehicle: water) does the source give for `O=C1c2c(O)ccc(O)c2C(=O)c2c(NCCNCCO)ccc(NCCNCCO)c21` here?
A: 270 % of control

Q: And the T/C (dose: 1.56 mg/kg/injection, schedule: Q01DX009 (ip), vehicle: water)?
A: 181 % of control

Q: What about the T/C (dose: 3.13 mg/kg/injection, schedule: Q01DX009 (ip), vehicle: water) of the same compound?
A: 90 % of control

Q: With `O=C(Cn1ccc(=O)[nH]c1=O)N1CCC2(CC1)SSC1(CCN(C(=O)Cn3ccc(=O)[nH]c3=O)CC1)S2` as the compound, how does the T/C (dose: 100.0 mg/kg/injection, schedule: Q04DX003 (ip), vehicle: saline) read?
A: 100 % of control

Q: What about the T/C (dose: 200.0 mg/kg/injection, schedule: Q04DX003 (ip), vehicle: saline) of the same compound?
A: 109 % of control

Q: And the T/C (dose: 400.0 mg/kg/injection, schedule: Q04DX003 (ip), vehicle: saline)?
A: 90 % of control

Q: Which results are given for `COc1cc(NCCN2CCN(CCNc3cc(OC)cc4cccnc34)CC2)c2ncccc2c1`?
A: T/C [1]: 113 % of control; T/C [2]: 110 % of control; T/C [3]: 94 % of control
